Like-named read-outs stand apart in the source and are kept apart here.
Experiments:
[1] = biological target: T1, proteasomal CT-like activity (Homo sapiens, UniProt P28074); assay: Proteasomal CT-like activity in xenograft tumor tissue; type: in vivo, female athymic nude mice; settings: xenograft tumors, 1 mg kg^−1 d^−1, after 27 days of treatment
T1 construct: from tissue; host or cells: MDA-MB-231 xenograft tumour tissue from female athymic nude mice
T1 sequence (P28074 60-263): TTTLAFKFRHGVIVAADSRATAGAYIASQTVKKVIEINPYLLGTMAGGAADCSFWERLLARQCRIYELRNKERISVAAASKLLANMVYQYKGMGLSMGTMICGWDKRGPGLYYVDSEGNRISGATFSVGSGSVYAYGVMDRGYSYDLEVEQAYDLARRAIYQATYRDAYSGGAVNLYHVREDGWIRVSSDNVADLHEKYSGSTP
Experimental: (§1) Seven-week-old female athymic nude mice were purchased from Harlan Laboratories (Indianapolis, USA) and housed in accordance with protocols approved by the Institutional Laboratory Animal Care and Use Committee of Wayne State University. Human breast cancer MDA-MB-231 cells suspended in 0.1 mL of serum-free DMEM/F12 cell growth medium were inoculated subcutaneously (s.c.) into the right flank of each mouse. When tumors reached a volume of around 115 mm^3, the mice were randomly allocated into three groups (seven mice per group) and treated five days a week by s.c. injection of either vehicle [1∶1∶1 v/v PBS, DMSO, Cremophore/ethanol (1∶4)] or medium containing 1.0 mg/kg of AuD6 or AuD8. Tumor length (L) and width (W) were measured every other day using a caliper, and tumor volumes were evaluated according to the standard formula (π ⋅ L ⋅ W^2)/6. Mouse weights were monitored weekly. Four mice per group were sacrificed after 27 days of treatment, or when tumors reached ∼1,800 mm^3, and the remaining three mice per group were sacrificed after 13 days to observe any early effects of treatments. The tumors were collected and weighed. Tumor tissues were used to measure proteasome inhibition and caspase-3 activation by enzymatic activity assays and by Western blot analysis.

[2] = biological target: T2, proteasome of MDA-MB-231 cell extract (Homo sapiens, UniProt P28072+P28074+Q99436); assay: Proteasome activity assay on MDA-MB-231 whole-cell extract; type: biochemical; settings: 2 h incubation
T2 construct: endogenous in cells; host or cells: MDA-MB-231 whole-cell extract
T2 sequence (P28074 60-263): T1 sequence (P28074 60-263)
T2 sequence (P28072 1-239): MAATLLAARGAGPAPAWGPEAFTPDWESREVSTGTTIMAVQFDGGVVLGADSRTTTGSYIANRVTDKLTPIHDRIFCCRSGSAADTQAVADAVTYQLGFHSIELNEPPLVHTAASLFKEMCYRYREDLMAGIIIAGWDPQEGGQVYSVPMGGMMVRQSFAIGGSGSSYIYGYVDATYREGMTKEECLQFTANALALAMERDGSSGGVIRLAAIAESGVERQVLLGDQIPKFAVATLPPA
T2 sequence (Q99436 44-277): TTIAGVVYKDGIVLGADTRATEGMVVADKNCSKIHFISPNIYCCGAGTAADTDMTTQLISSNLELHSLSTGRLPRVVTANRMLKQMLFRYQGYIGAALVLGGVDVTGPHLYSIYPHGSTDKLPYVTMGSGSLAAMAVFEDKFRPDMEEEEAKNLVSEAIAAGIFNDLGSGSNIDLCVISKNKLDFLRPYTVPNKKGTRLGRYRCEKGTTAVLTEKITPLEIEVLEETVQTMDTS
Experimental: Likewise, MDA-MB-231 whole-cell extract (10 µg/well) was incubated in quadruplicate with each complex and each fluorogenic substrate in 100 µL of assay buffer [20 mM Tris-HCl (pH 7.5)]. Fluorescence data were acquired after 1 hour and 2 hours incubation at 37°C. The whole-cell extract was prepared as described elsewhere.

[3] = tested on: MDA-MB-231 cells; assay: Cellular morphology (phase contrast imaging); type: cell-based, human; settings: MDA-MB-231, 24 h
From the text: A Zeiss (Thornwood, NY) Axiovert 25 microscope was used for cellular morphology microscopic imaging with phase contrast.

[4] = tested on: MDA-MB-231 xenografts; assay: Immunohistochemical p27 and TUNEL staining of tumor samples; type: in vivo, female athymic nude mice; settings: xenograft tumors, 1 mg kg^−1 d^−1
Experimental: IHC was performed using a previously reported protocol. Briefly, tumor samples were paraffin-embedded by the Pathology Core at Karmanos Cancer Institute (Detroit, MI, USA). Samples were then cut and stained for p27 or TUNEL by the BioBank at William Beaumont Hospital (Royal Oak, MI, USA). Anti-p27 (VP-P951) was from Vector Laboratories (Burlingame, CA, USA) and was used at a 1∶30 dilution followed by detection by DAKO. Samples were counterstained with DAB/Hematoxylin. TUNEL staining was performed using anti-digoxigenin and peroxidase substrate, followed by counterstaining with methyl green. In both cases, brown colored cells were considered positive.

[5] = tested on: MDA-MB-231 cells; assay: Annexin-V FITC/PI apoptosis assay (flow cytometry); type: cell-based, human; settings: MDA-MB-231, 20 µM; for cells in early stage apoptosis: 16 or 24 h (time not specified)
Experimental: Apoptosis indexes were measured using the Annexin-V fluorescein isothiocyanate (FITC) apoptosis detection kit I from by BD Pharmingen. MDA-MB-231 cells were grown to around 75% confluence, treated with gold-based complexes (20 µM) or solvent as a control for 16 or 24 h, harvested by means of a scraper and centrifugation. Cell pellets were washed twice with ice cold PBS and cells were then resuspended in 1× binding buffer at a concentration of 1•10^6 cells/mL. 100 µL of the suspension was then transferred to a 5 mL flow cytometry tube and 5 µL FITC Annexin V and 5 µL PI for double stained samples (either 5 µL of FITC Annexin V or 5 µL of PI for controls) were added. Mixtures were gently vortexed and incubated for 15 min at RT in the dark followed by addition of 400 µL 1× binding buffer to each tube. Then, analysis by flow cytometry occurred within 1 h at the Microscopy, Imaging and Cytometry Resources (MICR) Core at the Karmanos Cancer Institute, Wayne State University. Data (Figure 3) are presented as density plots of Annexin-V (x-axis) and propidium iodide (PI, y-axis) stainings. Unstained cells, cells stained with either PI or FITC Annexin-V only, and untreated cells stained with both PI and Annexin-V were used to set up compensation and quadrants. The excitation wavelength was 488 nm and the detection wavelengths were 530±15 and 620±21 nm for Annexin V and PI, respectively. Cells staining negative for both markers were considered viable since Annexin V and PI are both cell membrane impermeable while cells staining positive for both markers were considered in late apoptosis. Cells staining positive for Annexin only were considered in early apoptosis whereas cells staining positive for PI only were considered dead by a necrotic pathway. Percentages of viable, apoptotic, and necrotic cells are reported in the corner of each quadrant (Figure 3).

[6] = biological target: T3, Purified human 20S proteasome (Homo sapiens, UniProt P28072+P28074+Q99436); assay: Proteasome activity assay on purified 20S proteasome (fluorogenic substrates); type: biochemical; settings: 2 h incubation
T3 construct: purchased Boston Biochem (Boston, MA)
Experimental: Purified human 20S proteasome (0.5 nM) was incubated in triplicate with three different proteasomal fluorogenic substrates (20 µM) and each compound (dissolved in DMSO) at various concentrations ranging from 0.1 to 10 µM (or an equivalent volume of solvent DMSO as a control) in 100 µL of assay buffer [20 mM Tris-HCl (pH 7.5)].

[7] = tested on: MDA-MB-231 xenografts; assay: Human breast tumor xenograft growth; type: in vivo, female athymic nude mice; settings: 1.0 mg kg^−1 d^−1 s.c.
Experimental: as §1, with “analysis. […]” for “analysis.”

[8] = tested on: MDA-MB-231 cells; assay: MTT assay with ROS scavenger Trolox (pretreatment or co-treatment); type: cell-based, human; settings: for reduction of IC50 by co-treatment with Trolox: MDA-MB-231, 24 h co-treatment with Trolox 100 µM
Experimental: In order to investigate whether cell death is affected by free radicals produced in situ by our compounds, cells were seeded in quadruplicate and treated with both complexes and Trolox. We first pretreated cells for 1 h with Trolox at 100 µM and after changing medium, treated cells with compounds and incubated for an additional 24 h. Alternatively, we co-treated cells for 24 h with both compounds and Trolox (100 µM), followed by MTT assay.

[9] = tested on: p27; assay: Western blot of p27 in treated cells; type: cell-based, human; settings: MDA-MB-231, 24 h
Experimental: MDA-MB-231 cells were grown to around 75% confluence, treated with gold-based complexes or solvent as a control, harvested, and lysed. Cell lysates (30 µg/lane) were separated by SDS-PAGE and transferred to a nitrocellulose membrane. After blocking of non-specific binding (5% non-fat dry milk in Tris-Buffered Saline with Tween 20-TBST), membranes were incubated overnight at 4°C with primary antibodies, followed by washing with TBST and incubation for 2 h with secondary antibodies. Bands of interest were visualized using HyGLO Chemiluminescent HRP Antibody detection reagent, HyBlot Chemiluminescence films (Denville Scientific Inc.; Metuchen, NJ) and a HOPE Micro-MAX film processor.

[10] = tested on: MDA-MB-231 cells; assay: MTT cell proliferation assay; type: cell-based, human; settings: for IC50: read-out: IC50 (MTT, inhibition of cell proliferation)
Experimental: Human breast cancer MDA-MB-231 cells were obtained from American Type Culture Collection (Manassas, VA) and grown in DMEM/F12 supplemented with 10% fetal bovine serum, 1 mM sodium pyruvate, 10 mM HEPES, 100 U/mL penicillin and 100 µg/mL streptomycin. Cells were grown in a humidified incubator with 5% CO2 at 37°C. Cells were seeded in octuplicate in 96-well plates and grown to 70%–80% confluence, followed by treatment with DMSO (control) or each compound (dissolved in DMSO) in fresh medium at the indicated concentrations. After 24 or 72 hours incubation at 37°C, inhibition of cell proliferation was measured by MTT assay, as previously described. The cytotoxicity of the compounds was quantified as the percentage of cells surviving relative to untreated cells. Four MTT tests for each compound were performed in order to evaluate the corresponding IC50 values.

[11] = read-out: IC50 Chymotrypsin-like activity
[12] = read-out: IC50 PGPH-like activity
[13] = read-out: IC50 Trypsin-like activity

| Structure (SMILES) | inhibition of the proteasomal CT-like pocket in tumor tissue [1] | IC50 [2, 11] | IC50 [2, 12] | IC50 [2, 13] | concentration at which apoptotic morphological changes were observed [3] | TUNEL positive (staining of tumor) [4] | p27 positive (immunohistochemical staining of tumor) [4] | cells in early stage apoptosis [5] | apoptotic cells at late stage (upper right quadrant) ([5]; 24 h) | IC50 [6, 11] | IC50 [6, 12] | IC50 [6, 13] | reduction of IC50 by co-treatment with Trolox [8] | other results |
| --- | --- | --- | --- | --- | --- | --- | --- | --- | --- | --- | --- | --- | --- | --- |
| C[N+](CC(=O)NC(C)(C)C(=O)OC(C)(C)C)=C1[S][Au-]([Br])([Br])[S]1 [AuD8, [Au^IIIBr2(dtc-Sar-AA-O(t-Bu))]] | 33% | 2900 ± 600 nM | 4500 ± 900 nM | 5700 ± 100 nM | 10 µM | ~30% | ~95% | 7–9% | 74.1% | 290 ± 70 nM | 540 ± 80 nM | 610 ± 20 nM | very little effect | apoptotic cells at late stage (upper right quadrant) ([5]; 16 h): 62.9%; inhibition of tumor growth compared to control ([7]; 27 days, p<0.05): 53%; tumor volume at end of treatment ([7]; day 27): 849±79 mm^3; concentration inducing p27 accumulation [9]: below 1 µM |
| N.N.[Cl][Pt][Cl] [cisplatin, cis-diammineplatinum(II) dichloride] | – | – | – | – | – | – | – | – | – | – | – | – | – | growth-inhibitory effect ([10]; MDA-MB-231, 100 µM, 24 h treatment): around 40%; IC50 (MTT, inhibition of cell proliferation) ([10]; MDA-MB-231, 24 h treatment): not reached; IC50 ([10]; MDA-MB-231, 24 h treatment): > 100000 nM |
| C[N+](CC(=O)NCC(=O)OC(C)(C)C)=C1[S][Au-]([Br])([Br])[S]1 [AuD6, [Au^IIIBr2(dtc-Sar-AA-O(t-Bu))]] | 14% | 3300 ± 400 nM | 2300 ± 800 nM | 3000 ± 900 nM | 20 µM | ~75% | ~20% | 7–9% | 49% | 420 ± 30 nM | 490 ± 90 nM | 510 ± 70 nM | approximately 3 fold | IC50 ([10]; MDA-MB-231, 72 h treatment): 13000 ± 1000 nM |
| Cc1c(C)c2c(c(C)c1O)CCC(C)(C(=O)O)O2 (centres unmarked) [Trolox, reference compound] | – | – | – | – | – | – | – | – | – | – | – | – | – | inhibition at 100 µM ([8]; Homo sapiens, MDA-MB-231, Trolox 100 µM, 24 h treatment, read-out: inhibition of tumor cell growth by Trolox alone): ~25% |

From article PMC3879379, “Gold(III)-Dithiocarbamato Peptidomimetics in the Forefront of the Targeted Anticancer Therapy: Preclinical Studies against Human Breast Neoplasia” (PLoS ONE, 2014)
